According to US9643994B2, “Crystalline polymorphic form of ulipristal acetate” (ASKA PHARMACEUTICAL CO., LTD., priority 2012, dated 2017):
≈ marks a conversion by molar mass, not a printed value. Like-named read-outs stand apart in the source and are kept apart here.

Assay: Solubility in ethanol/water (10/90) mixed solvent at 37° C., HPLC quantitation
Type: physicochemical
Excerpt: [Solubility] […] Then a portion of the suspension was separated.

Row | SMILES | Solubility [µg/mL] | Solubility (40 mg in 40 mL ethanol/water (volume ratio)=10/90, 37° C., stirred 5 minutes, filtered, HPLC UV 302 nm) [µg/mL]
1 | CC(=O)O[C@]1(C(C)=O)CCC2C3CCC4=CC(=O)CCC4=C3[C@@H](c3ccc(N(C)C)cc3)C[C@@]21C (stereo partly drawn) [Comparative Example, 17alpha-acetoxy-11beta-(4-N,N-dimethylaminophenyl)-19-norpregna-4,9-diene-3,20-dione] | 6.4 (≈ 13.5 µM) | –
2 | CC(=O)O[C@]1(C(C)=O)CCC2C3CCC4=CC(=O)CCC4=C3[C@@H](c3ccc(N(C)C)cc3)C[C@@]21C (stereo partly drawn) [Example 1, 17alpha-acetoxy-11beta-(4-N,N-dimethylaminophenyl)-19-norpregna-4,9-diene-3,20-dione] | – | 9.2
